This is an account of results in ChEMBL document CHEMBL5653631, “A Potent and Selective ULK1 Inhibitor Suppresses Autophagy and Sensitizes Cancer Cells to Nutrient Stress” (iScience, 2018).

For one test, the species on record is Homo sapiens. As to the kind of experiment: Inhibition of human recombinant p70S6K at 40 nM in presence of ATP by radiometric assay relative to control.
In test [1] the target is Calcium/calmodulin-dependent protein kinase kinase 2 (Homo sapiens) (UniProt Q96RR4). Put plainly: Inhibition of human recombinant CaMKK2 at 40 nM related to control ULK1.
Sequence of Calcium/calmodulin-dependent protein kinase kinase 2 (Homo sapiens) (Q96RR4 2-588 limits assumed): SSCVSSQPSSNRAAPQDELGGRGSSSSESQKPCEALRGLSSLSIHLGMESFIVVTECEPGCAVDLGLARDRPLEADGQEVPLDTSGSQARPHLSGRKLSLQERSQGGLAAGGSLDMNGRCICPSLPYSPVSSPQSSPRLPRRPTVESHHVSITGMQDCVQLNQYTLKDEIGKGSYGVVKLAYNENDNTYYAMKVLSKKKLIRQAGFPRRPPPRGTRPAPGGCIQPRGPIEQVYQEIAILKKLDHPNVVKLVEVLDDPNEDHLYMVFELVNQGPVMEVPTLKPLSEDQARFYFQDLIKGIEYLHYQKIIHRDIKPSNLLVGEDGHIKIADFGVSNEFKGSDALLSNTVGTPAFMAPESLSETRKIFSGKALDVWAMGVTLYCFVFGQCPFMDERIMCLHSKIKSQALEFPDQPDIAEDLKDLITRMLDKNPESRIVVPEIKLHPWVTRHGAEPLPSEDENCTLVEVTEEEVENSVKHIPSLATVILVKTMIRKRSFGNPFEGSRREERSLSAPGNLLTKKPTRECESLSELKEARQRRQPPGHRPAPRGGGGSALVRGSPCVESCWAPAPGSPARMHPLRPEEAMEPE
The target in test [2] is Ephrin type-A receptor 5 (Homo sapiens) (UniProt P54756). As to the kind of experiment: Inhibition of human recombinant EphA5 at 500 nM in presence of ATP by radiometric assay relative to control.
Sequence of Ephrin type-A receptor 5 (Homo sapiens) (P54756 whole entry): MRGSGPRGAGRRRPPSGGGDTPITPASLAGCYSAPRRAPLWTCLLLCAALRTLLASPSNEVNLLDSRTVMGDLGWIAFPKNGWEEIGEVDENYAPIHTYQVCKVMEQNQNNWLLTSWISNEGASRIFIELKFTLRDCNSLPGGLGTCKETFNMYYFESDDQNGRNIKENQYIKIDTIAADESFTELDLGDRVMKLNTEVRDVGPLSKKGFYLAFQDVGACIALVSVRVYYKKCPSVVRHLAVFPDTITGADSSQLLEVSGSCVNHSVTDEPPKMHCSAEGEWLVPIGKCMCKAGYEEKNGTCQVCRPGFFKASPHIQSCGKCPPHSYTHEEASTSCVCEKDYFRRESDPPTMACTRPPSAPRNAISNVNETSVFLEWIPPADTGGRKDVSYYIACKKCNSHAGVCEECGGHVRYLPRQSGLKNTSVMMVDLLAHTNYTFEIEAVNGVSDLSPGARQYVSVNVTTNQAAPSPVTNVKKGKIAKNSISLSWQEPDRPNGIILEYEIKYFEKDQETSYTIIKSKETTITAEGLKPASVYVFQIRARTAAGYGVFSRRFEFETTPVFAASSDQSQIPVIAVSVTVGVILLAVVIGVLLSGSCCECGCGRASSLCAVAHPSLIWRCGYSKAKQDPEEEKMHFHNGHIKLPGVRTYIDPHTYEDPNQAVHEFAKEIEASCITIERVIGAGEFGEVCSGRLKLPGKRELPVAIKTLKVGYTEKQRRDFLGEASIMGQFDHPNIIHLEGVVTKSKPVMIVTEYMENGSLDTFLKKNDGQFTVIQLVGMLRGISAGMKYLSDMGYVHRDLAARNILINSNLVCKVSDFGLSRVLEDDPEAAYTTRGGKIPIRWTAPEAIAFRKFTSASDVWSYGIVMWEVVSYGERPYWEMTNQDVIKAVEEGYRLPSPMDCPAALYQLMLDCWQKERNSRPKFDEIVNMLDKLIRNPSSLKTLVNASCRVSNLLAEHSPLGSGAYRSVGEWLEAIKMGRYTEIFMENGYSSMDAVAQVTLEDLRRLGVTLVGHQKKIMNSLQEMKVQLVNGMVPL
The target in test [3] is T1, Mitogen-activated protein kinase kinase kinase kinase 2 (Homo sapiens) (UniProt Q12851).
T1 sequence (whole entry): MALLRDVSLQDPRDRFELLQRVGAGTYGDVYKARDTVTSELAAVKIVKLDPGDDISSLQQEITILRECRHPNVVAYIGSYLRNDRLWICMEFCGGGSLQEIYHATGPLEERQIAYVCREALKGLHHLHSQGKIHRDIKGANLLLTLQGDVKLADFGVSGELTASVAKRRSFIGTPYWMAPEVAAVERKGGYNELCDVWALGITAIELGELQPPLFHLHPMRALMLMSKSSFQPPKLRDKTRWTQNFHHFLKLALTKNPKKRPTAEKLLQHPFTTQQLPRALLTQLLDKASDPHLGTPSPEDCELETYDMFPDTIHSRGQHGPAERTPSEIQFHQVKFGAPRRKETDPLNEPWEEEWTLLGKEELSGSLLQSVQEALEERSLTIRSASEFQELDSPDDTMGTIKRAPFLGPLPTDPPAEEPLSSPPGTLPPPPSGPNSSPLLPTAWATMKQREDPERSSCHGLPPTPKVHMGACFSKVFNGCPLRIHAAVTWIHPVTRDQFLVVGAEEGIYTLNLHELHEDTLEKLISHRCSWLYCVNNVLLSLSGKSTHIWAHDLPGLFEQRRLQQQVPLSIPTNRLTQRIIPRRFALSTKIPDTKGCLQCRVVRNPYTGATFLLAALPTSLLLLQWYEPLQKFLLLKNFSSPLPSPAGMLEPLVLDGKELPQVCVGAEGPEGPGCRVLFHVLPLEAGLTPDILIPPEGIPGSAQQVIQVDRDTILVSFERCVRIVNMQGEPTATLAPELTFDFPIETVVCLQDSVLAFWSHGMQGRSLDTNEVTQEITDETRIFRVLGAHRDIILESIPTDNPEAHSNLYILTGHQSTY
Put plainly: Inhibition of human recombinant GCK at 500 nM in presence of ATP by radiometric assay relative to control.

For test [4], the target named is T2, Serine/threonine-protein kinase STK11 (Homo sapiens) (UniProt Q15831).
T2 sequence (whole entry): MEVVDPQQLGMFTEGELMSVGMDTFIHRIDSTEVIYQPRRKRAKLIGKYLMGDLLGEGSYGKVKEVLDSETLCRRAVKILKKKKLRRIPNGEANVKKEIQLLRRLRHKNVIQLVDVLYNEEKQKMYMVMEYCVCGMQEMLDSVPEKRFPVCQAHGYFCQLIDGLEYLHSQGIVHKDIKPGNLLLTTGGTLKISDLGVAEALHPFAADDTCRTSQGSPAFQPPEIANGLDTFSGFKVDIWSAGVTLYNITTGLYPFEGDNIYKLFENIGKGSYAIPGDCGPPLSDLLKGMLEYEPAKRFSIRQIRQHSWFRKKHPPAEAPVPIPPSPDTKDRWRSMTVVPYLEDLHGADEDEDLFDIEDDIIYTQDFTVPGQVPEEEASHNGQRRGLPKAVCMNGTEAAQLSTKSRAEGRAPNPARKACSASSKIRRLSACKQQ
As to the kind of experiment: Inhibition of human recombinant LKB1 at 500 nM in presence of ATP by radiometric assay relative to control.

Test [5] concerns the target T3, MAP/microtubule affinity-regulating kinase 4 (Homo sapiens) (UniProt Q96L34).
T3 sequence (whole entry): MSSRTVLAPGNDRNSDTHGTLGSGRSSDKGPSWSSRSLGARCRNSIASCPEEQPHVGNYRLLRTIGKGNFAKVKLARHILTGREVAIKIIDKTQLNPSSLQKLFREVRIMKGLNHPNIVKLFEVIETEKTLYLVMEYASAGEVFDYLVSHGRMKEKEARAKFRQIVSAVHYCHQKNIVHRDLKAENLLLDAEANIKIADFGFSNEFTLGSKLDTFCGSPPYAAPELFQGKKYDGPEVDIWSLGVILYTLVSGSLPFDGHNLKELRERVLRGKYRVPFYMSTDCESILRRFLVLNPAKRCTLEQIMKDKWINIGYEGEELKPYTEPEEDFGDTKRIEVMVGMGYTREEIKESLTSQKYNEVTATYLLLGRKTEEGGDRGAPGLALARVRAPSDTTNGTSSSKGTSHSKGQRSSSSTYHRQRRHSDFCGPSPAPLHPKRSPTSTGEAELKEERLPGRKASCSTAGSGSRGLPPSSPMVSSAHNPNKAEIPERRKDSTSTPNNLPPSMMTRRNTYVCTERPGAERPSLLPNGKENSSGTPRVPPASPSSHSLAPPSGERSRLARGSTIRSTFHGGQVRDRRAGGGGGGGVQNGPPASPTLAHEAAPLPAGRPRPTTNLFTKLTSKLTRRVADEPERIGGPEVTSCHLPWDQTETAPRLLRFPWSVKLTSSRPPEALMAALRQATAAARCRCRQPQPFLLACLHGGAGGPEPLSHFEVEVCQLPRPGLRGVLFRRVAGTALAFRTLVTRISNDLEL
As to the kind of experiment: Inhibition of human recombinant MARK4 at 500 nM in presence of ATP by radiometric assay relative to control.

Test [6] concerns the target Serine/threonine-protein kinase 4 (Homo sapiens) (UniProt Q13043). As to the kind of experiment: Inhibition of human recombinant MST1 at 500 nM related to control ULK1.
The target of test [7] is T4, Rhodopsin kinase GRK1 (Homo sapiens) (UniProt Q15835).
T4 sequence (whole entry): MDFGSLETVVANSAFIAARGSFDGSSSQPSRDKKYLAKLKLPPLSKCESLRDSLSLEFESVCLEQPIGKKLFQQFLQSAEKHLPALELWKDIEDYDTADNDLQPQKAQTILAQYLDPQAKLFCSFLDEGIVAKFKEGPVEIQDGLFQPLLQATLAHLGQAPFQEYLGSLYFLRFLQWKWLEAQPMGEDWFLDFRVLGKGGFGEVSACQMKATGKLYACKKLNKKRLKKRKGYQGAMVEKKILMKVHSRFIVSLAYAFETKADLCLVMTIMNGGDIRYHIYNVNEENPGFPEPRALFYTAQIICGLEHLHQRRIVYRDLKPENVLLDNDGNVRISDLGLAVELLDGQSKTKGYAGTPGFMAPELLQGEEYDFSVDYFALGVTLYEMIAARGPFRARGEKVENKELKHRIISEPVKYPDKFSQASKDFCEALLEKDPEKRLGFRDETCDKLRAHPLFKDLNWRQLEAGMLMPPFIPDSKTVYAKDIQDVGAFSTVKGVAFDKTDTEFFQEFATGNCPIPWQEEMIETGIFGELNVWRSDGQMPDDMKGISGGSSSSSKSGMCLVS
Put plainly: Inhibition of human recombinant RHOK at 15 nM in presence of ATP by radiometric assay relative to control.

Sequence of Serine/threonine-protein kinase 4 (Homo sapiens) (Q13043 whole entry, looked up): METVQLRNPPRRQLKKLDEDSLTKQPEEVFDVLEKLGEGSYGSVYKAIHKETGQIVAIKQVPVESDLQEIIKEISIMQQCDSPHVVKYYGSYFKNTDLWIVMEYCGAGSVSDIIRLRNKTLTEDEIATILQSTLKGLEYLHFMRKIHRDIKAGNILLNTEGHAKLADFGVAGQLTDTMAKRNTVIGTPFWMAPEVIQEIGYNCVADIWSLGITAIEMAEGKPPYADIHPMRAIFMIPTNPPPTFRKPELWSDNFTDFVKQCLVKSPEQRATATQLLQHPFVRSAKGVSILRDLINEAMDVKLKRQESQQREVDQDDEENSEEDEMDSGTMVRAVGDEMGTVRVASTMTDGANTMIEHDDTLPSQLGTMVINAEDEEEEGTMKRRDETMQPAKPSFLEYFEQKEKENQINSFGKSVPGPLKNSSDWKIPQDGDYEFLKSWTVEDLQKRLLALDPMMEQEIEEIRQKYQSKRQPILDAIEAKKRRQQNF

The term inhibition denotes the drop in the measured response relative to a control, in per cent. In the case of `O=C(N[C@@H](C1CC1)C(F)(F)F)c1cc(-c2cnn3cc(-c4ccc(F)cc4)cnc23)cs1`, the inhibition in the test listed under Homo sapiens worked out at 2%. Further, in test [1], the fold change (FC) is 0.

With `CNC(=O)c1ccccc1Oc1nc(Nc2cc(OC)c(OC)c(OC)c2)ncc1Br`, the inhibition is 19% in test [2], 33% in test [3], 12% in test [4] and 58% in test [5]. Further, the fold change (FC) in test [6] was 0.

As to `CC(C)[C@H](NC(=O)c1cc(-c2cnn3cc(-c4ccc(OCCN5CCCCC5)cc4)cnc23)cs1)C(F)(F)F`, the inhibition in test [7] came out at 0%.
